Among the data in patent publication US10894798B2, “Substituted dihydropyrrolopyrazole derivative” (UBE INDUSTRIES, LTD., priority 2015, dated 2021) are IC50 values, retold here.

Molecules are shown by their SMILES. Where two headings read alike, the source gives them in different places.

In this assay the test system is IL-2 production. The experiment in a line: Human PBMC CD3/CD28-induced IL-2 production inhibition test. The format is cell-based. The following applies: 48 h, read-out: IC50 value, IL-2 production inhibition. As for the experimental part: PBMC (peripheral blood mononuclear cell) was separated and collected by using Ficoll-Paque (manufactured by GE Healthcare Japan Corp.) from blood collected from a healthy human adult in the presence of heparin. A RPMI1640 medium containing 10% FBS, 1% penicillin/streptomycin/amphotericin B, essential amino acids, and pyruvic acid and containing a test compound dissolved in DMSO and 2 μg/mL CD28 was added at 100 μL/well to T cell Activation Plate Anti-Human CD3 96-well plate (manufactured by Becton, Dickinson and Company), and subsequently, a PBMC suspension prepared such that the number of cells was 2×10^6 cells/mL was added thereto at 100 μL/well (final DMSO concentration: 0.1%). A RPMI1640 medium containing 10% FBS and containing 0.1% DMSO and 2 μg/mL CD28 was similarly added to wells not supplemented with the test compound. After culture for 2 days in a carbon dioxide incubator, the culture supernatant was collected. The collected culture supernatant was stored at −20° C. until IL-2 content measurement.
In the measurement of an L-2 content in the culture supernatant, a sandwich ELISA kit (Quantikine Human IL-2, manufactured by R&D Systems, Inc.) was used. The L-2 content of each sample was calculated from the calibration curve of Standard IL-2 included in the kit. […] A test compound concentration necessary for inhibiting 50% of L-2 production (IC50 value) was calculated from the concentration of the added test compound and the rate of inhibition of IL-2 production by the test compound by using EXSUS (version 8.1.0, manufactured by CAC Exicare Corp.).

Where [1] appears, read: human PBMC, CD3/CD28 stimulation, culture for 2 days, ELISA.

Regarding `Cc1ccccc1NC(=O)N1Cc2c(NC(=O)C3([Si](C)(C)C)CCC3)n[nH]c2C1(C)C` [IV-21, 6,6-Dimethyl-N-(o-tolyl)-3-[1-(trimethylsilyl)cyclobutanecarboxamido]-4,6-dihydropyrrolo[3,4-c]pyrazole-5(1H)-carboxamide], the IC50 under setting [1] was no more than 100 nM. For the compound `CC1(C)c2[nH]nc(NC(=O)C3([Si](C)(C)C)CCC3)c2CN1C(=O)Nc1c(F)cccc1Cl` [IV-113, N-(2-Chloro-6-fluorophenyl)-6,6-dimethyl-3-[1-(trimethylsilyl)cyclobutanecarboxamido]-4,6-dihydropyrrolo[3,4-c]pyrazole-5(1H)-carboxamide], the IC50 (Homo sapiens, PBMC) was no more than 100 nM. On to `Cc1ccc(F)c(NC(=O)N2Cc3c(NC(=O)C4([Si](C)(C)C)CCC4)n[nH]c3C2(C)C)c1` [IV-127, N-(2-Fluoro-5-methylphenyl)-6,6-dimethyl-3-[1-(trimethylsilyl)cyclobutanecarboxamido]-4,6-dihydropyrrolo[3,4-c]pyrazole-5 (1H)-carboxamide], for which the IC50 under setting [1] was no more than 100 nM. The same measure, in the same setting: with `COc1cccc(F)c1NC(=O)N1Cc2c(NC(=O)C3([Si](C)(C)C)CCC3)n[nH]c2C1(C)C` [IV-161, N-(2-Fluoro-6-methoxyphenyl)-6,6-dimethyl-3-[1-(trimethylsilyl)cyclobutanecarboxamido]-4,6-dihydropyrrolo[3,4-c]pyrazole-5(1H)-carboxamide] the figure was no more than 100 nM.

Usually IC50 stands for the concentration needed to halve the response being measured.
